These results are taken from US20260013502A1, “METHOD FOR TERMINATING COVER CROP GROWTH” (SUMITOMO CHEMICAL COMPANY, LIMITED, priority 2022, published 2026).

Where “and” joins values, the source holds several entries; their conditions need not be identical. Equal values may be shown once. Where a name gives a salt, the structure may show the parent alone.

Experiment [1] has as its system edible radish (Daikon Radish). As to the kind of experiment: Example 10: outdoor pot test, foliar application, termination of radish growth. In kind it is in vivo, Raphanus sativus. The following applies: outdoors, applied 24 days after seeding, epyrifenacil 20 g/ha, glyphosate-potassium salt 1,543 g/ha; for Growth termination date: death of terminal and lateral buds in all 7 pots; for Date at the beginning of the onset of effect: visual change in leaf color in all 7 pots, day relative to application. As for the experimental part: A plastic pot was filled with soil, and edible radish (Daikon Radish) was seeded and grown outdoors. Twenty-four days after seeding, RoundupPowerMax was diluted with water, and then the radish was subjected to foliar application from above using an automatic sprayer at a spray volume of 200 L/ha to achieve an application rate of 1, 543 g/ha as glyphosate-potassium salt.
At the same time, the radish was similarly seeded in another plastic pot and grown. Twenty-four days after seeding, epyrifenacil emulsifiable concentrate (55 g/L) was diluted with water containing […] adjuvant Agri-Dex, and then the radish was subjected to foliar application from above using an automatic sprayer at a spray volume of 200 L/ha to achieve an application rate of 20 g/ha.
At the same time, the radish was similarly seeded in another plastic pot and grown. Twenty-four days after seeding, the entire plant was dug up and the dry matter weight (hereinafter referred to as untreated dry matter weight) was measured.
The radish applied with the herbicide was grown outdoors after application with the herbicide, and in case the growth was terminated, the entire plant was dug up at termination of the growth and the dry matter weight was measured. In this test, the growth was judged to be terminated when death of terminal and lateral buds was visually confirmed. The date at the beginning of the onset of effect, the growth termination date, and the dry matter weight at the time of growth termination are shown in Table 4. The onset of the effect was judged by visually observing the change in leaf color. Application with each herbicide was performed using seven pots. The date at the beginning of the onset of effect and the growth termination date in the table were dates on which the onset of effect and growth termination were confirmed in all seven pots, respectively. The incremental dry matter weight was the value calculated by the following formula (2).
Incremental dry matter weight=average dry matter weight at the time of growth termination−average untreated dry matter weight 24 days after seeding Formula (2): • Average dry matter weight at the time of growth termination: average value of dry matter weights of 7 pots at the time of growth termination • Average untreated dry matter weight 24 days after seeding: average value of untreated dry matter weights of 7 pots

Experiment [2] relates to cereal rye (Secale cereale). The experiment in a line: Example 7: greenhouse pot test, foliar application, termination of cereal rye growth. The experiment is classed as in vivo. The following applies: for Dry matter weight: cereal rye above-ground parts at growth termination, average of 3 pots. On the procedure: A plastic pot was filled with soil, and cereal rye (Secale cereale) was seeded and grown in a greenhouse. Fifteen days after seeding, RoundupPowerMax was diluted with water, and then the cereal rye was subjected to foliar application from above using an automatic sprayer at a spray volume of 200 L/ha to achieve an application rate of 1,543 g/ha as glyphosate-potassium salt.
At the same time, the cereal rye was similarly seeded in another plastic pot and grown. Twenty-one days after seeding, epyrifenacil emulsifiable concentrate (55 g/L) or saflufenacil suspension (341 g/L) was diluted with water containing 1% (v/v) adjuvant Agri-Dex, and then the cereal rye was subjected to foliar application from above using an automatic sprayer at a spray volume of 200 L/ha to achieve an application rate of 25 g/ha.
(§1) After application with the herbicide, the cereal rye was grown in a greenhouse, and in case the growth was terminated, the above-ground parts were harvested at termination of the growth and the dry matter weight was measured. In this test, the growth was judged to be terminated when death of terminal and lateral buds was visually confirmed. The date at the beginning of the onset of effect, the growth termination date, and the dry matter weight at the time of growth termination are shown in Table 1. The onset of the effect was judged by visually observing the change in leaf color. Application with each herbicide was performed using three pots. The date at the beginning of the onset of effect and the growth termination date in the table were dates on which the onset of effect and growth termination were confirmed in all three pots, respectively. The dry matter weight was the average of the three pots.

The test system of experiment [3] is edible radish (Daikon Radish). As to the kind of experiment: Example 8: greenhouse pot test, foliar application, termination of radish growth. The following applies: for Dry matter weight: radish entire plant at growth termination, average of 3 pots; for Growth termination date / Date at the beginning of the onset of effect: epyrifenacil 25 g/ha applied 21 days after seeding, glyphosate-potassium salt 1,543 g/ha applied 15 days after seeding; for Date at the beginning of the onset of effect: visual change in leaf color in all 3 pots, day relative to application. In kind it is in vivo, Raphanus sativus. On the procedure:
A plastic pot was filled with soil, and edible radish (Daikon Radish) was seeded and grown in a greenhouse. Fifteen days after seeding, RoundupPowerMax was diluted with water, and then the radish was subjected to foliar application from above using an automatic sprayer at a spray volume of 200 L/ha to achieve an application rate of 1,543 g/ha as glyphosate-potassium salt.
At the same time, the radish was similarly seeded in another plastic pot and grown. Twenty-one days after seeding, epyrifenacil emulsifiable concentrate (55 g/L) was diluted with water containing 1% (v/v) adjuvant Agri-Dex, and then the radish was subjected to foliar application from above using an automatic sprayer at a spray volume of 200 L/ha to achieve an application rate of 25 g/ha.
as §1, with “radish” for “cereal rye”, “entire plant was dug up” for “above-ground parts were harvested”, “2.” for “1.”

Where [4] appears, read: epyrifenacil 25 g/ha, glyphosate-potassium salt 1,543 g/ha.
Setting [5] is: epyrifenacil 25 g/ha, glyphosate-potassium salt 1,543 g/ha, listed as epyrifenacil.
Where [6] appears, read: cereal rye, greenhouse, death of terminal and lateral buds in all 3 pots, epyrifenacil/saflufenacil 25 g/ha applied 21 days after seeding, glyphosate-potassium salt 1,543 g/ha applied 15 days after seeding.
Setting [7] is: radish, greenhouse, death of terminal and lateral buds in all 3 pots.

Take `CCOC(=O)COc1ncccc1Oc1cc(-n2c(=O)cc(C(F)(F)F)n(C)c2=O)c(F)cc1Cl` [Epyrifenacil, epyrifenacil]: the Growth termination date in experiment [1] was 7 Days after application and 7 Days after Days after application; in experiment [2] (setting [6]), 24 Days Days after seeding; in experiment [3] (setting [7]), 24 Days after Days after seeding. The “Date at the beginning of the onset of effect” value in experiment [1] is on record as “Day after”; in experiment [3] (radish, greenhouse) it was “On the day of”. Besides, the Dry matter weight in experiment [2] (setting [4]) is 1,118 kg/ha; in experiment [2] (setting [5]) it was “biomass was greater”; in experiment [3] (setting [4]), 905 kg/ha; in experiment [3] (setting [5]), “biomass was greater”.

On to `O=C(O)CNCP(=O)(O)O` [Glyphosate-potassium salt, glyphosate-potassium salt], for which the Growth termination date entry in experiment [1] is “failed to terminate the growth”; in experiment [2] (setting [6]), 24 Days Days after seeding; in experiment [3] (setting [7]), 24 Days after Days after seeding. The “Date at the beginning of the onset of effect” value in experiment [1] is given as 10 Days Days after application; in experiment [2] (cereal rye, greenhouse, visual change in leaf color in all 3 pots, day relative to application, epyrifenacil/saflufenacil 25 g/ha applied 21 days after seeding, glyphosate-potassium salt 1,543 g/ha applied 15 days after seeding), 5 Days after Days after application; in experiment [3] (radish, greenhouse) it was 7 Days after Days after application. In addition, the Dry matter weight in experiment [2] (setting [4]) worked out at 595 kg/ha; in experiment [3] (setting [4]) it was 360 kg/ha. The “Growth termination date (days after application)” value in experiment [2] (cereal rye, greenhouse, death of terminal and lateral buds in all 3 pots, epyrifenacil 25 g/ha, glyphosate-potassium salt 1,543 g/ha) was “seeding (9 days after application”; in experiment [3] (radish, greenhouse, death of terminal and lateral buds in all 3 pots, epyrifenacil 25 g/ha, glyphosate-potassium salt 1,543 g/ha), “seeding (9 days after application”.
